13 compounds from patent US20260256925A1, “INDAZOLE DERIVATIVES AS ESTROGEN RECEPTOR DEGRADERS” (REGENTS OF THE UNIVERSITY OF MICHIGAN, priority 2022, published 2026) can be followed below.

The target in one assay is T1, ER (Homo sapiens, UniProt P03372).
T1 construct: endogenous in cells; probably T47D or MCF-7
T1 sequence (P03372 1-595): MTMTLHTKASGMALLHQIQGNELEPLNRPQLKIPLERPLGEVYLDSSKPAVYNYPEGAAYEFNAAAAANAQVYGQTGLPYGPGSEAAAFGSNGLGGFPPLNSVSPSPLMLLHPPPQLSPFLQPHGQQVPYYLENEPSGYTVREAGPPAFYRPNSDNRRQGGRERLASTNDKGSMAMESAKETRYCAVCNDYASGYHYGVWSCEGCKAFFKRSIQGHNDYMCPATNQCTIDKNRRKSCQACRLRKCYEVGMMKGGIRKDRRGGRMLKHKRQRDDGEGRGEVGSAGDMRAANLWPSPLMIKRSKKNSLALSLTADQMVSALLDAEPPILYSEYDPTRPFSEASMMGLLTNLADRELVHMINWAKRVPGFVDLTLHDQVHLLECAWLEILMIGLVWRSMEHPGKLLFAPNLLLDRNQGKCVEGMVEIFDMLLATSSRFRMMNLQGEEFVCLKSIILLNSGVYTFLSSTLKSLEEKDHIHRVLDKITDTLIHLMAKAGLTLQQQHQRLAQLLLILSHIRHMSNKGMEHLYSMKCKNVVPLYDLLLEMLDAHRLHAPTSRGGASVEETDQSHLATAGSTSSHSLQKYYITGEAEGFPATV
Put plainly: In-cell western blot analysis, relative ER percentage (compounds B1-B126). It is filed as cell-based. Conditions: ER degradation, 16 hours, read-out: ICW DC50. Summed up: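 Readout was a two-colour infrared in-cell western of formaldehyde-fixed cells after 16 h compound exposure at 0.5% DMSO, with 40,000 or 10,000 cells/well plated the previous night. Relative ER percentage compares treated wells against untreated/DMSO-treated wells taken as 100%.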

The nature of assay [1]: Cell growth assay, WST-8 (compounds B1-B126). It is filed as cell-based. Conditions: 96 h; T47D cell line, WST-8, 4 days; read-out: Cell growth inhibition in T47D cell line IC50. Summed up:
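Read-out is WST-8 absorbance at 450 nm (2.5 h, 37° C) as a fraction of vehicle control, from three separate repeats. Compound exposure lasted 4 days, starting one day after plating 1500 cells/well.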
In general terms: Tetrazolium dyes change colour on reduction, which living cells bring about.

On to `C[C@@H]1Cc2c(ccc3[nH]ncc23)[C@@H](c2ccc(N3CC4(CCC(CN5CCC6(CCOc7c6ccc6c7CN(C7CCC(=O)NC7=O)C6=O)CC5)CC4)C3)cn2)N1CC(F)(F)F` (stereo partly drawn) [Compound B58, 3-(1-((2-(6-((6S,8R)-8-methyl-7-(2,2,2-trifluoroethyl)-6,7,8,9-tetrahydro-3H-pyrazolo[4,3-f]isoquinolin-6-yl)pyridin-3-yl)-2-azaspiro[3.5]nonan-7-yl)methyl)-7′-oxo-2′,3′,7′,9′-tetrahydro-8′H-spiro[piperidine-4,4′-pyrano[2,3-e]isoindol]-8′-yl)piperidine-2,6-dione], for which the DC50 (as a rule, the midpoint of the concentration-degradation curve) on ER is > 100 nM. Further, in assay [1], the half-maximal inhibitory concentration (IC50) (in general, the concentration needed to halve the response being measured) was < 1 nM.

On to `C[C@@H]1Cc2c(ccc3[nH]ncc23)[C@@H](c2ccc(N3CC4(CCC(CN5CCN6c7cc8c(cc7N(C)C[C@@H]6C5)C(=O)N(C5CCC(=O)NC5=O)C8)CC4)C3)cn2)N1CC(F)(F)F` (stereo partly drawn) [Compound B59, 3-((S)-6-methyl-3-((2-(6-((6S,8R)-8-methyl-7-(2,2,2-trifluoroethyl)-6,7,8,9-tetrahydro-3H-pyrazolo[4,3-f]isoquinolin-6-yl)pyridin-3-yl)-2-azaspiro[3.5]nonan-7-yl)methyl)-8-oxo-2,3,4,4a,5,6,8,10-octahydropyrazino[1,2-a]pyrrolo[3,4-g]quinoxalin-9(1H)-yl)piperidine-2,6-dione], for which the DC50 on ER is < 10 nM. In assay [1], the 50% inhibitory concentration (IC50) lay in the range of 1 to 10 nM.

Consider `C[C@@H]1Cc2c(ccc3[nH]ncc23)[C@@H](c2ccc(N3CCC4(CC3)CC(CN3CCC5(CC3)COc3c5ccc5c3CN(C3CCC(=O)NC3=O)C5=O)C4)cn2)N1CC(F)(F)F` (stereo partly drawn) [Compound B60, 3-(1′-((7-(6-((6S,8R)-8-methyl-7-(2,2,2-trifluoroethyl)-6,7,8,9-tetrahydro-3H-pyrazolo[4,3-f]isoquinolin-6-yl)pyridin-3-yl)-7-azaspiro[3.5]nonan-2-yl)methyl)-6-oxo-6,8-dihydro-2H,7H-spiro[furo[2,3-e]isoindole-3,4′-piperidin]-7-yl)piperidine-2,6-dione], for which the DC50 at ER was < 10 nM. Further, the IC50 in assay [1] was < 1 nM.

As to `C[C@@H]1Cc2c(ccc3[nH]ncc23)[C@@H](c2ccc(N3CCC4(CC3)CC(CN3CCN5c6cc7c(cc6N(C)C[C@@H]5C3)C(=O)N(C3CCC(=O)NC3=O)C7)C4)cn2)N1CC(F)(F)F` (stereo partly drawn) [Compound B61, 3-((S)-6-methyl-3-((7-(6-((6S,8R)-8-methyl-7-(2,2,2-trifluoroethyl)-6,7,8,9-tetrahydro-3H-pyrazolo[4,3-f]isoquinolin-6-yl)pyridin-3-yl)-7-azaspiro[3.5]nonan-2-yl)methyl)-8-oxo-2,3,4,4a,5,6,8,10-octahydropyrazino[1,2-a]pyrrolo[3,4-g]quinoxalin-9(1H)-yl)piperidine-2,6-dione], the half-maximal degradation concentration (DC50) on ER is < 10 nM. Also, the IC50 in assay [1] was < 1 nM.

Regarding `C[C@@H]1Cc2c(ccc3[nH]ncc23)[C@@H](c2ccc(N3CCC(CN4CCC5(CC4)COc4c5ccc5c4CN(C4CCC(=O)NC4=O)C5=O)CC3)cn2)N1CC(F)(F)F` (stereo partly drawn) [Compound B62, 3-(1′-((1-(6-((6S,8R)-8-methyl-7-(2,2,2-trifluoroethyl)-6,7,8,9-tetrahydro-3H-pyrazolo[4,3-f]isoquinolin-6-yl)pyridin-3-yl)piperidin-4-yl)methyl)-6-oxo-6,8-dihydro-2H,7H-spiro[furo[2,3-e]isoindole-3,4′-piperidin]-7-yl)piperidine-2,6-dione], the DC50 on ER is > 100 nM. The IC50 in assay [1] is < 1 nM.

For `C[C@@H]1Cc2c(ccc3[nH]ncc23)[C@@H](c2ccc(N3CCC(CN4CCN(c5ccc6c(c5)CN(C5CCC(=O)NC5=O)C6=O)CC4)CC3)cn2)N1CC(F)(F)F` (stereo partly drawn) [Compound B63, 3-(5-(4-((1-(6-((6S,8R)-8-methyl-7-(2,2,2-trifluoroethyl)-6,7,8,9-tetrahydro-3H-pyrazolo[4,3-f]isoquinolin-6-yl)pyridin-3-yl)piperidin-4-yl)methyl)piperazin-1-yl)-1-oxoisoindolin-2-yl)piperidine-2,6-dione], on ER, the DC50 was < 10 nM. In assay [1], the IC50 is < 1 nM.

`C[C@@H]1Cc2c(ccc3[nH]ncc23)[C@@H](c2ccc(N3CC4(CCN(C(=O)CN5CCC6(CC5)COc5c6ccc6c5CN(C5CCC(=O)NC5=O)C6=O)CC4)C3)cn2)N1CC(F)(F)F` (stereo partly drawn) [Compound B64, 3-(1′-(2-(2-(6-((6S,8R)-8-methyl-7-(2,2,2-trifluoroethyl)-6,7,8,9-tetrahydro-3H-pyrazolo[4,3-f]isoquinolin-6-yl)pyridin-3-yl)-2,7-diazaspiro[3.5]nonan-7-yl)-2-oxoethyl)-6-oxo-6,8-dihydro-2H,7H-spiro[furo[2,3-e]isoindole-3,4′-piperidin]-7-yl)piperidine-2,6-dione]: the DC50 on ER is < 10 nM. Besides, the IC50 in assay [1] was < 1 nM.

As for `COc1cc(N2CCC3(CCN(C(=O)CN4Cc5cc6c(cc5C4)C(=O)N(C4CCC(=O)NC4=O)C6=O)CC3)CC2)ccc1[C@@H]1c2ccc3[nH]ncc3c2C[C@@H](C)N1CC(F)F` (stereo partly drawn) [Compound B68, 6-(2-(9-(4-((6S,8R)-7-(2,2-difluoroethyl)-8-methyl-6,7,8,9-tetrahydro-3H-pyrazolo[4,3-f]isoquinolin-6-yl)-3-methoxyphenyl)-3,9-diazaspiro[5.5]undecan-3-yl)-2-oxoethyl)-2-(2,6-dioxopiperidin-3-yl)-6,7-dihydropyrrolo[3,4-f]isoindole-1,3(2H,5H)-dione], the DC50 at ER is < 10 nM. Moreover, the IC50 in assay [1] fell in the range of 1 to 10 nM.

Take `COc1cc(N2CCC3(CCN(C(=O)CN4Cc5cc6c(cc5C4)C(=O)N(C4CCC(=O)NC4=O)C6)CC3)CC2)ccc1[C@@H]1c2ccc3[nH]ncc3c2C[C@@H](C)N1CC(F)F` (stereo partly drawn) [Compound B69, 3-(6-(2-(9-(4-((6S,8R)-7-(2,2-difluoroethyl)-8-methyl-6,7,8,9-tetrahydro-3H-pyrazolo[4,3-f]isoquinolin-6-yl)-3-methoxyphenyl)-3,9-diazaspiro[5.5]undecan-3-yl)-2-oxoethyl)-1-oxo-3,5,6,7-tetrahydropyrrolo[3,4-f]isoindol-2(1H)-yl)piperidine-2,6-dione]: the DC50 on ER is < 10 nM. Also, the half-maximal inhibitory concentration (IC50) in assay [1] was < 1 nM.

Take `COc1c2c(cc3c1CN(C1CCC(=O)NC1=O)C3=O)CN(CC(=O)N1CCC3(CC1)CCN(c1cc(F)c([C@@H]4c5ccc6[nH]ncc6c5C[C@@H](C)N4CC(F)F)c(F)c1)CC3)C2` (stereo partly drawn) [Compound B72, 3-(6-(2-(9-(4-((6S,8R)-7-(2,2-difluoroethyl)-8-methyl-6,7,8,9-tetrahydro-3H-pyrazolo[4,3-f]isoquinolin-6-yl)-3,5-difluorophenyl)-3,9-diazaspiro[5.5]undecan-3-yl)-2-oxoethyl)-4-methoxy-1-oxo-3,5,6,7-tetrahydropyrrolo[3,4-f]isoindol-2(1H)-yl)piperidine-2,6-dione]: the DC50 at ER was < 10 nM. The IC50 in assay [1] was 1 to 10 nM.

Regarding `COc1c2c(cc3c1CN(C1CCC(=O)NC1=O)C3=O)CN(CC(=O)N1CC3(CCN(c4cc(F)c([C@@H]5c6ccc7[nH]ncc7c6C[C@@H](C)N5CC(F)F)c(F)c4)CC3)C1)C2` (stereo partly drawn) [Compound B73, 3-(6-(2-(7-(4-((6S,8R)-7-(2,2-difluoroethyl)-8-methyl-6,7,8,9-tetrahydro-3H-pyrazolo[4,3-f]isoquinolin-6-yl)-3,5-difluorophenyl)-2,7-diazaspiro[3.5]nonan-2-yl)-2-oxoethyl)-4-methoxy-1-oxo-3,5,6,7-tetrahydropyrrolo[3,4-f]isoindol-2(1H)-yl)piperidine-2,6-dione], the DC50 at ER lay in the range of 10 to 100 nM. The IC50 in assay [1] is < 1 nM.

Consider `C[C@@H]1Cc2c(ccc3[nH]ncc23)[C@@H](c2ccc(N3CCC4(CCN(CC(=O)N5Cc6cc7c(cc6C5)C(=O)N(C5CCC(=O)NC5=O)C7)CC4)CC3)cn2)N1CC(F)(F)F` (stereo partly drawn) [Compound B76, 3-(6-(2-(9-(6-((6S,8R)-8-methyl-7-(2,2,2-trifluoroethyl)-6,7,8,9-tetrahydro-3H-pyrazolo[4,3-f]isoquinolin-6-yl)pyridin-3-yl)-3,9-diazaspiro[5.5]undecan-3-yl)acetyl)-1-oxo-3,5,6,7-tetrahydropyrrolo[3,4-f]isoindol-2(1H)-yl)piperidine-2,6-dione], for which the DC50 on ER is < 10 nM. For the same compound, the IC50 in assay [1] lay in the range of 1 to 10 nM.

For the compound `C[C@@H]1Cc2c(ccc3[nH]ncc23)[C@@H](c2ccc(N3CCC4(CC3)CC(CN3CCN5c6cc7c(cc6OC[C@@H]5C3)C(=O)N(C3CCC(=O)NC3=O)C7)C4)cn2)N1CC(F)(F)F` (stereo partly drawn) [Compound B77, 3-((S)-3-((7-(6-((6S,8R)-8-methyl-7-(2,2,2-trifluoroethyl)-6,7,8,9-tetrahydro-3H-pyrazolo[4,3-f]isoquinolin-6-yl)pyridin-3-yl)-7-azaspiro[3.5]nonan-2-yl)methyl)-8-oxo-1,2,3,4,4a,5,8,10-octahydro-9H-pyrazino[1′,2′:4,5][1,4]oxazino[2,3-f]isoindol-9-yl)piperidine-2,6-dione], the DC50 at ER fell in the range of 10 to 100 nM. The IC50 in assay [1] lay in the range of 1 to 10 nM.
